Experimental data from US12459918B2, “Isoquinolinone derivatives serving as rock protein kinase inhibitors and use thereof” (GUANGZHOU OCUSUN OPHTHALMIC BIOTECHNOLOGY CO., LTD., priority 2019, dated 2025).

Key:
[1] = system: New Zealand rabbits with normal intraocular pressure; test: Reduction of intraocular pressure by repeated eye-drop administration for 14 days, experiment operation 1; type: in vivo; details: for Change of intraocular pressure: negative control minus group
Description: Experimental example 4. Experiment on reduction of intraocular pressure and ocular toxicity of New Zealand rabbits with normal intraocular pressure by repeated eye-drop administration for 14 days
The intraocular pressure reduction action and the potential ocular toxicity of compound 63 were explored by 14 days of repeated eye-drop administration in rabbits with normal intraocular pressure.
Male New Zealand rabbits, aged 97-127 days, weighted 2.6-3.5 kg, purchased from PizhouDongfang Breeding Co. Ltd.
The male New Zealand rabbits were randomly divided into 7 groups, with 6 rabbits per group. Animals were randomly divided according to body weight Animals in 1-7 groups were eye-dropped with solvent/control sample/test sample in both eyes, the volume of the administration was all 50 μL/eye, once per day for 14 consecutive days, and the day of the administration was recorded as Day 1. On Day 1, intraocular pressure of the animals was measured before the administration and in 1, 2, 4, 6, 8 and 10 hours after the administration, respectively; on Days 2-14, intraocular pressure of the animals was measured in 1 hour after daily administration for the group administered with K-115, and intraocular pressure of the animal was measured in 4 hours after daily administration for the other groups.

[2] = system: New Zealand rabbits with normal intraocular pressure; test: Ocular stimulation response examination by hand-held slit lamp, 14 days eye-drop administration; type: in vivo; details: 4 mg/mL, 14 consecutive days, 50 μL/eye/day
Experimental: 42 male New Zealand rabbits were randomly divided into 7 groups, with 6 rabbits per group. Animals were randomly divided according to body weight Animals in 1-7 groups were eye-dropped with normal saline in the left eye and with solvent/control sample/test sample in the right eye respectively by a volume of 50 μL/eye, once per day for 14 consecutive days, and the day of administration was recorded as Day 1. The intraocular pressure of the animals was measured before Day 1 administration and in 1, 2, 4, 6, 8 and 10 hours after Day 1 administration, respectively (Table 8).
Before the experiment (Day 2/Day 1), before daily administration during the administration (Days 1-14), and in 1, 2, 4, 24, 48 and 72 hours after the last administration (Day 14), the eyes of animals were examined for ocular stimulation response and fluorescein sodium by a hand-held slit lamp (scoring by referring to the scoring criteria).
Before the experiment (Day 2/Day 1), before the first daily administration (Days 1-14) during the administration, and in 1, 2, 4, 24, 48 and 72 hours after the last administration, the eyes of animals were examined for ocular stimulation response by a hand-held slit lamp. The scoring criteria were as follows. […]

[3] = 4 mg/mL once per day, Day 2, 1 hour after daily administration
[4] = 4 mg/mL once per day, Day 3, 1 hour after daily administration
[5] = 4 mg/mL once per day, Day 4, 1 hour after daily administration
[6] = 4 mg/mL once per day, Day 5, 1 hour after daily administration
[7] = 4 mg/mL once per day, Day 6, 1 hour after daily administration
[8] = 4 mg/mL once per day, Day 7, 1 hour after daily administration
[9] = 4 mg/mL once per day, Day 8, 1 hour after daily administration
[10] = 4 mg/mL once per day, Day 9, 1 hour after daily administration
[11] = 4 mg/mL once per day, Day 10, 1 hour after daily administration
[12] = 4 mg/mL once per day, Day 11, 1 hour after daily administration
[13] = 4 mg/mL once per day, Day 12, 1 hour after daily administration
[14] = 4 mg/mL once per day, Day 13, 1 hour after daily administration
[15] = 4 mg/mL once per day, Day 14, 1 hour after daily administration

Evaluation of ocular stimulation [2]: no stimulation
SMILES: C[C@H]1CNCCCN1S(=O)(=O)c1cccc2cncc(F)c12 [Compound K-115, reference compound]
Mean intraocular pressure of both eyes ([1]; 4 mg/mL both eyes, Day 1, 1 hour after administration): 7.72 mmHg | Mean intraocular pressure of both eyes ([1]; 4 mg/mL both eyes, Day 1, 2 hours after administration): 9.00 mmHg | Mean intraocular pressure of both eyes ([1]; 4 mg/mL both eyes, Day 1, 4 hours after administration): 9.67 mmHg | Mean intraocular pressure of both eyes ([1]; 4 mg/mL both eyes, Day 1, 6 hours after administration): 10.56 mmHg | Mean intraocular pressure of both eyes ([1]; 4 mg/mL both eyes, Day 1, 8 hours after administration): 10.28 mmHg | Mean intraocular pressure of both eyes ([1]; 4 mg/mL both eyes, Day 1, 10 hours after administration): 12.81 mmHg | Mean intraocular pressure of both eyes ([1]; 4 mg/mL both eyes, Day 1, before administration): 10.83 mmHg | Mean intraocular pressure of both eyes [1, 3]: 6.83 mmHg | Change of intraocular pressure [1, 3]: 4.25 mmHg | Mean intraocular pressure of both eyes [1, 4]: 6.81 mmHg | Change of intraocular pressure [1, 4]: 3.58 mmHg | Mean intraocular pressure of both eyes [1, 5]: 6.92 mmHg | Change of intraocular pressure [1, 5]: 3.69 mmHg | Mean intraocular pressure of both eyes [1, 6]: 6.67 mmHg | Change of intraocular pressure [1, 6]: 4.3 mmHg | Mean intraocular pressure of both eyes [1, 7]: 6.75 mmHg | Change of intraocular pressure [1, 7]: 2.56 mmHg | Mean intraocular pressure of both eyes [1, 8]: 7.39 mmHg | Change of intraocular pressure [1, 8]: 2.67 mmHg | Mean intraocular pressure of both eyes [1, 9]: 7.53 mmHg | Change of intraocular pressure [1, 9]: 3.78 mmHg | Mean intraocular pressure of both eyes [1, 10]: 7.78 mmHg | Change of intraocular pressure [1, 10]: 1.66 mmHg | Mean intraocular pressure of both eyes [1, 11]: 7.94 mmHg | Change of intraocular pressure [1, 11]: 1.81 mmHg | Mean intraocular pressure of both eyes [1, 12]: 7.94 mmHg | Change of intraocular pressure [1, 12]: 1.75 mmHg | Mean intraocular pressure of both eyes [1, 13]: 7.89 mmHg | Change of intraocular pressure [1, 13]: 1.64 mmHg | Mean intraocular pressure of both eyes [1, 14]: 8.25 mmHg | Change of intraocular pressure [1, 14]: 3.14 mmHg | Mean intraocular pressure of both eyes [1, 15]: 8.50 mmHg | Change of intraocular pressure [1, 15]: 2.47 mmHg | Change of intraocular pressure ([1]; 4 mg/mL, Day 1, 1 hour after administration): 2.59 mmHg | Change of intraocular pressure ([1]; 4 mg/mL, Day 1, 2 hours after administration): 1.97 mmHg | Change of intraocular pressure ([1]; 4 mg/mL, Day 1, 4 hours after administration): 1.64 mmHg | Change of intraocular pressure ([1]; 4 mg/mL, Day 1, 6 hours after administration): 1.38 mmHg | Change of intraocular pressure ([1]; 4 mg/mL, Day 1, 8 hours after administration): 2.69 mmHg | Change of intraocular pressure ([1]; 4 mg/mL, Day 1, 10 hours after administration): 1.61 mmHg | Change of intraocular pressure ([1]; 4 mg/mL, Day 1, before administration): −0.94 mmHg
